Assays:
[1] = molecular target: T1, recombinant MEN1 protein and fluorescein-labeled MLL4-43 peptide (Homo sapiens, UniProt O00255); assay: Primary fluorescence polarization assay of MEN1 / MLL4-43 interaction inhibition; type: binding; conditions: MEN1 10 nM, MLL4-43 0.5 nM, 1 hour at room temperature
T1 construct: purchased Creativebiomart MEN1-35H
T1 sequence (O00255 1-610): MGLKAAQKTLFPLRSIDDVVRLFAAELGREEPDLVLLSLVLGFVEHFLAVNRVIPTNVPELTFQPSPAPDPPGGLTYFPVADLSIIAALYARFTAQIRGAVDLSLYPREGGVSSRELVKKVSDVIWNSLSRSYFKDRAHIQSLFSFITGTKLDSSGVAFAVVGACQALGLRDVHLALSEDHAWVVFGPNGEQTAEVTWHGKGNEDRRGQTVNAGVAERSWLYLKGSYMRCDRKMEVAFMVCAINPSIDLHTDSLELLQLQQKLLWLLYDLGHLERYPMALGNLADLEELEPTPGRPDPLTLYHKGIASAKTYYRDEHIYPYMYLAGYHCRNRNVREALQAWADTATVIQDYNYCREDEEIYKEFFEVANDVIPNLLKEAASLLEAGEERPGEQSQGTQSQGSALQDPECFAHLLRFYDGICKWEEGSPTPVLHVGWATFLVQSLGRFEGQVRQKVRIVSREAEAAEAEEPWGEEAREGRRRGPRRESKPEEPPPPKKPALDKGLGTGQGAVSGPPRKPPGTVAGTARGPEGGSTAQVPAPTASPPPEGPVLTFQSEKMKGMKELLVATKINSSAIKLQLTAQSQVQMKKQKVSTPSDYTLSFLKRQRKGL
Experimental: Compound activity was determined using recombinant MEN1 protein (Creativebiomart, Cat #MEN1-35H) and a custom fluorescein-labeled MLL4-43 peptide (Eton Bioscience Inc.). Interaction between MEN1 and MLL4-43 in the presence of compounds was determined by fluorescence polarization assay using a Microplate Reader ClarioStar Plus. The reaction was carried out in assay buffer (50 mM TRIS-HCl PH 7.4-7.6, 50 mM NaCl, 1 mM DTT, 0.1 mg/ml BSA). The compounds were dispensed on a 384 well Diamond Well Plate (Axigen, Cat #P-384-120 SQ-C—S) using the Biomek FX liquid handling system at 100× solutions of compounds in DMSO. 2× MEN1 mix (final concentration of MEN1 10 nM) was prepared in Assay buffer and 10 μl of mixture per well was added into 384w white Reaction plate with NBS(Corning, Cat #4513). 10 μl of Assay buffer w/o MENI was used for negative control. Plates were centrifuged for 1 min at 100 g. Next step the Compounds were added to Reaction plate using Biomek station via following steps: 3 μl of 100× compounds (in DMSO) were mixed thoroughly with 27 μl Assay Buffer, then 2 μl of this mixture was added to Reaction plate with 10 μl of MENI mix. Plates were centrifuged for 1 min at 100 g and incubated for 20 min at room temperature. Next 8 μL of MLL4-43 peptide per well was added to final concentration of MLL 0.5 nM. Plates were incubated for 1 hour at room temperature. Then fluorescence polarization was measured using Microplate Reader.

[2] = test system: MV4-11; assay: MV4-11 Cellular Growth Inhibition Assay (CellTiter-Glo); type: cell-based; conditions: Homo sapiens, 168 h, MV4-11 cells, 7 days of incubation
Experimental: (§1) HEK293 (Institute of Cytology Russian Academy of Science), MV4-11 (ATCC, CRL-9591), MOLM-13 (AcceGen, ABC-TC517S) were seeded at a density of 500 cells per well (HEK293) and 2000 cells per well (MV4-11, MOLM-13) in a 384-well clear bottom plate (Greiner Cat #781090) in 45 μl total volume of DMEM (PanEco, Cat #C420, Russia) or RPMI (PanEco, Cat #C330, Russia) with 10% FBS(HyClone Cat #SV30160.03). HEK293 were allowed to adhere overnight at 37° C., 5% CO2. 500× compounds solutions in DMSO (Sigma Cat #D2650) were prepared into Cmpnds plate (Diamond Well Plate, Axigen, Cat #P-384-120 SQ-C—S) and DMSO only control was included. 1 μl of 500× compounds (Cmpnds plate) was added to 49 μl of culture medium into Dilution plate (Diamond Well Plate, Axigen, Cat #P-384-120 SQ-C—S), mixed and then 5 μl of 10× compounds solutions were transferred to cells followed by centrifugation at 100 g for 1 min. Final DMSO concentration was 0.2%. After 3 days of incubation, 10 μl of 1× compounds were added to cells. After 7 days of incubation, 12 μl of CellTiter-Glo (Promega, CAT #G7572) were added to the cells, plate was centrifuged at 100 g for 1 min and luminescence signal was measured using Microplate Reader (CLARIOStar).

[3] = test system: MOLM-13; assay: MOLM-13 Cellular Growth Inhibition Assay (CellTiter-Glo); type: cell-based; conditions: Homo sapiens, 168 h, MOLM-13 cells, 7 days of incubation
Experimental: as §1

[4] = HEK293 Cellular Growth Inhibition Assay (CellTiter-Glo); type: cell-based; conditions: human, HEK293 cells, 7 days of incubation
Experimental: as §1

Row | SMILES | EC50 [1] | CC50 [2] | CC50 [3] | CC50 at 7 days [4]
1 | CCS(=O)(=O)N[C@H]1CC[C@H](CN2CCC3(CC2)CCN(c2ncnc4ccc(CC(F)(F)F)cc24)CC3)CC1 [Compound 3, N-((1R,4R)-4-((9-(6-(2,2,2-trifluoroethyl)quinazolin-4-yl)-3,9-diazaspiro[5.5]undecan-3-yl)methyl)cyclohexyl)ethanesulfonamide] | 0.5 to 1 µM | 5 to 10 µM | 10 to 20 µM | 5 to 15 µM
2 | CCS(=O)(=O)Nc1ccc(CN2CC3(CCN(c4ncnc5ccc(CC(F)(F)F)cc45)CC3)C2)cc1 [Compound 43, N-(4-((7-(6-(2,2,2-trifluoroethyl)quinazolin-4-yl)-2,7-diazaspiro[3.5]nonan-2-yl)methyl)phenyl)ethanesulfonamide] | 1 to 5 µM | 5 to 10 µM | 5 to 10 µM | 15 to 30 µM
3 | FC(F)(F)Cc1ccc2ncnc(N3CC4(CCN(Cc5ccc6[nH]ccc6c5)CC4)C3)c2c1 [Compound 90, 4-(7-((1H-indol-5-yl)methyl)-2,7-diazaspiro[3.5]nonan-2-yl)-6-(2,2,2-trifluoroethyl)quinazoline] | 0.5 to 1 µM | 2.5 to 5 µM | 5 to 10 µM | 5 to 15 µM
4 | CCS(=O)(=O)N[C@H]1CC[C@H](CN2CCC3(CC2)CN(c2ncnc4ccc(C#Cc5ccccc5)cc24)C3)CC1 [Compound 53, N-((1R,4R)-4-((2-(6-(phenylethynyl)quinazolin-4-yl)-2,7-diazaspiro[3.5]nonan-7-yl)methyl)cyclohexyl)ethanesulfonamide] | > 5 µM | 2.5 to 5 µM | 5 to 10 µM | ≤ 5 µM
5 | CCS(=O)(=O)N[C@H]1CC[C@H](CN2CCC3(CC2)CN(c2ncnc4ccc(CC(C)c5ccccc5)cc24)C3)CC1 (mixture of isomers) [Compound 59, N-((1R,4R)-4-((2-(6-((RS)-2-phenylpropyl)quinazolin-4-yl)-2,7-diazaspiro[3.5]nonan-7-yl)methyl)cyclohexyl)ethanesulfonamide] | 0.075 to 0.5 µM | ≤ 1 µM | ≤ 1 µM | ≤ 5 µM
6 | CCS(=O)(=O)N[C@H]1CC[C@H](Cn2cc(CNc3ncnc4ccc(CC(F)(F)F)cc34)nn2)CC1 [Compound 69, N-((1R,4R)-4-((4-(((6-(2,2,2-trifluoroethyl)quinazolin-4-yl)amino)methyl)-1H-1,2,3-triazol-1-yl)methyl)cyclohexyl)ethanesulfonamide] | > 5 µM | > 10 µM | 5 to 10 µM | 30 to 50 µM
7 | CCS(=O)(=O)N[C@H]1CC[C@H](CN2CCC3(CC2)CN(c2ncnc4ccc(CCc5ccccc5)cc24)C3)CC1 [Compound 51, N-((1R,4R)-4-((2-(6-phenethylquinazolin-4-yl)-2,7-diazaspiro[3.5]nonan-7-yl)methyl)cyclohexyl)ethanesulfonamide] | 0.5 to 1 µM | 2.5 to 5 µM | 5 to 10 µM | 5 to 15 µM
8 | CCS(=O)(=O)NC12CC(CN3CCC4(CC3)CN(c3ncnc5ccc(CC(F)(F)F)cc35)C4)(C1)C2 [Compound 74, N-(3-((2-(6-(2,2,2-trifluoroethyl)quinazolin-4-yl)-2,7-diazaspiro[3.5]nonan-7-yl)methyl)bicyclo[1.1.1]pentan-1-yl)ethanesulfonamide] | 1 to 5 µM | > 10 µM | 10 to 20 µM | 30 to 50 µM
9 | CCS(=O)(=O)N1Cc2ccc(CN3CCC4(CC3)CN(c3ncnc5ccc(CC(F)(F)F)cc35)C4)cc2C1 [Compound 94, 4-(7-((2-(ethylsulfonyl)isoindolin-5-yl)methyl)-2,7-diazaspiro[3.5]nonan-2-yl)-6-(2,2,2-trifluoroethyl)quinazoline] | 0.075 to 0.5 µM | 2.5 to 5 µM | 5 to 10 µM | 5 to 15 µM
10 | CCS(=O)(=O)N[C@H]1CC[C@H](CN2CCC3(CC2)CN(c2ncnc4ncc(CC(F)(F)F)cc24)C3)CC1 [Compound 65, N-(1R,4R)-[4-[[2-[6-(2,2,2-trifluoroethyl)pyrido[2,3-d]pyrimidin-4-yl]-2,7-diazaspiro[3.5]nonan-7-yl]methyl]cyclohexyl]ethanesulfonamide] | 0.075 to 0.5 µM | 1 to 2.5 µM | 1 to 5 µM | > 50 µM
11 | CCS(=O)(=O)Nc1ccc(CN2CCC3(CC2)CN(c2ncnc4cc(CC(F)(F)F)ccc24)C3)cc1 [Compound 8, N-(4-((2-(7-(2,2,2-trifluoroethyl)quinazolin-4-yl)-2,7-diazaspiro[3.5]nonan-7-yl)methyl)phenyl)ethanesulfonamide] | > 5 µM | 5 to 10 µM | 10 to 20 µM | 15 to 30 µM
12 | CCS(=O)(=O)Nc1cccc(CN2CC3(CCN(c4ncnc5ccc(CC(F)(F)F)cc45)CC3)C2)c1 [Compound 44, N-(3-((7-(6-(2,2,2-trifluoroethyl)quinazolin-4-yl)-2,7-diazaspiro[3.5]nonan-2-yl)methyl)phenyl)ethanesulfonamide] | 0.5 to 1 µM | 1 to 2.5 µM | 5 to 10 µM | 5 to 15 µM
13 | CCS(=O)(=O)Nc1ccc(CN2CCC3(CC2)CN(c2ncnc4ccc(CC(F)(F)F)cc24)C3)cc1OCC(C)N1CCN(S(C)(=O)=O)CC1 (racemic) [Compound 70, rac-(R)-N-(2-(2-(4-(methylsulfonyl)piperazin-1-yl)propoxy)-4-((2-(6-(2,2,2-trifluoroethyl)quinazolin-4-yl)-2,7-diazaspiro[3.5]nonan-7-yl)methyl)phenyl)ethanesulfonamide] | > 5 µM | 2.5 to 5 µM | 5 to 10 µM | 15 to 30 µM
14 | CCS(=O)(=O)Nc1ccc(CN2CCC3(CC2)CN(c2ncnc4ccc(CCc5ccccc5)cc24)C3)cc1 [Compound 52, N-(4-((2-(6-phenethylquinazolin-4-yl)-2,7-diazaspiro[3.5]nonan-7-yl)methyl)phenyl)ethanesulfonamide] | 0.5 to 1 µM | 1 to 2.5 µM | 1 to 5 µM | 5 to 15 µM
15 | CCS(=O)(=O)N[C@H]1CC[C@H](CN2CCC3(CC2)CN(c2ncnc4ccc(CCc5ccncc5)cc24)C3)CC1 [Compound 48, N-((1R,4R)-4-((2-(6-(2-(pyridin-4-yl)ethyl)quinazolin-4-yl)-2,7-diazaspiro[3.5]nonan-7-yl)methyl)cyclohexyl)ethanesulfonamide] | 0.5 to 1 µM | > 10 µM | > 20 µM | 30 to 50 µM
16 | CCS(=O)(=O)N[C@H]1CC[C@H](CNc2ccc(CN3CCC4(CC3)CN(c3ncnc5ccc(CC(F)(F)F)cc35)C4)cc2)CC1 [Compound 79, N-((1R,4R)-4-(((4-((2-(6-(2,2,2-trifluoroethyl)quinazolin-4-yl)-2,7-diazaspiro[3.5]nonan-7-yl)methyl)phenyl)amino)methyl)cyclohexyl)ethanesulfonamide] | 0.075 to 0.5 µM | > 10 µM | 1 to 5 µM | ≤ 5 µM

Source: patent publication US20250066358A1, “Inhibitors of Menin-MLL Interaction” (Bala Therapeutics, Inc., priority 2021, published 2025)
